Assay: DPPH free radical scavenging rate method (antioxidant capacity)
Format: biochemical
Conditions: 30 min, dark, 517 nm, average of three
Description: The antioxidant capacity was determined with the neutral protease and trypsin-digested peptide prepared in example 2, as well as the alkaline protease-digested peptide, the trypsin-digested peptide, the neutral protease-digested peptide, the papain-digested peptide and the pepsin-digested peptide prepared in example 3 used as samples, with soybean protein peptide and reduced glutathione used as controls (DPPH free radical scavenging rate method).
(1) DPPH (1,1-diphenyl-2-picrylhydrazyl) (25 mg) was weighed accurately, dissolved in absolute ethanol and the volume reached to 250 mL in a brown volumetric flask, DPPH solution with the concentration of 0.1 mg/mL was obtained and was kept in dark place to be supplied as standby.
(2) 1.0 mL sample solutions with different concentrations (100 mg/mL, 10 mg/mL, 1 mg/mL, 0.1 mg/mL) were taken, the solutions were placed in a 10 mL colorimetric tube respectively, 4.0 ml DPPH solution was added, the mixture was reacted at room temperature in a dark place for 30 minutes.
(3) The absorbance value was measured at 517 nm with the absolute ethanol as blank. The DPPH free radical scavenging rate was calculated according to the following formula. DPPH free radical scavenging rate (%)=[…] • In the formula. A0—the absorbance value of 1.0 mL distilled water+3.0 mL solution • As—the absorbance value of 1.0 mL sample solution+3.0 mL DPPH solution • Ac—the absorbance value of 1.0 mL sample solution+3.0 mL absolute ethanol.
The experiment was repeated for three times, the average value of the scavenging rate was obtained (if the solution was turbid, the measurement was taken after centrifugation).

In the case of N[C@@H](CCC(=O)N[C@@H](CS)C(=O)NCC(=O)O)C(=O)O [Reduced glutathione (GSH), Reduced glutathione], the “DPPH free radical scavenging rate” value (sample concentration 0.1 mg/ml) is reported as 30.8%, the “DPPH free radical scavenging rate” value (sample concentration 1 mg/ml) is reported as 72.1% and the “DPPH free radical scavenging rate” value (sample concentration 10 mg/ml) is reported as 90.9%. The “DPPH free radical scavenging rate” value (sample concentration 100 mg/ml) was 95.9%.

Reference: patent publication US10548933B2, “Method for preparing broccoli protein peptide mixture” (ZHEJIANG HISUN PHARMACEUTICAL CO., LTD., priority 2015, dated 2020)
